Source: paper PMC4585798 (Scientific Reports, 2015)
No end group written: not given here.

Columns and labels:
[1] = molecular target: hα9α10[L7H] nAChR (Homo sapiens, UniProt Q9GZZ6+Q9UGM1, L31H); test: cell-based; assay type: cell-based
[2] = molecular target: the molecule itself; test: mass spectrometry before and after reduction and alkylation

Chain of hα9α10[L7H] nAChR (Q9UGM1 26-479 limits assumed, stated change not applied): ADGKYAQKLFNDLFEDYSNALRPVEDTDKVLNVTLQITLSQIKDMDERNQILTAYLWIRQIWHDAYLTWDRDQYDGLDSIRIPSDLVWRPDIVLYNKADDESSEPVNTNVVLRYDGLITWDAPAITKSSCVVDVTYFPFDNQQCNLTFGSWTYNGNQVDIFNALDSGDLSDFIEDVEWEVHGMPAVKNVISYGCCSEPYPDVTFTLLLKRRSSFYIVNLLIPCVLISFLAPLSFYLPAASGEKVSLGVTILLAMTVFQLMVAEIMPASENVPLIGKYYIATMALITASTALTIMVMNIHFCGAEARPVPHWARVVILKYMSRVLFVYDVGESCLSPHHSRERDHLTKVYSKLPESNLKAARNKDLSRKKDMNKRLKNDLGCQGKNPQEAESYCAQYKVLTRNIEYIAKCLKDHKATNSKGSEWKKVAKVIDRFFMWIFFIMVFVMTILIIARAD
Chain of hα9α10[L7H] nAChR (Q9GZZ6 25-450 L31H limits assumed, stated change not applied): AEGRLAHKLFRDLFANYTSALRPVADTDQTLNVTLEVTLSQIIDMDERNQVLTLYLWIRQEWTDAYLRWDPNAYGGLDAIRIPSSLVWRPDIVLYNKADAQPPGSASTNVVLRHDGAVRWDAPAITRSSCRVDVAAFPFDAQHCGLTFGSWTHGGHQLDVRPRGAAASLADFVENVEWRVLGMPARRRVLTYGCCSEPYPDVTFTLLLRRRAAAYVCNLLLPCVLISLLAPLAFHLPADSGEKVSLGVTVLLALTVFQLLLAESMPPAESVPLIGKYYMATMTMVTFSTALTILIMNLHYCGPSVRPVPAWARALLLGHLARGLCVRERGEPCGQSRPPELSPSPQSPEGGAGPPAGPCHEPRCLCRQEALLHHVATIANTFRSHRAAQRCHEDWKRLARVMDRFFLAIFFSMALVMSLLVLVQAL

Molecule | effect of α10 L7H mutation on inhibitory activity (in words) [1] | stoichiometry N [2]
Vc1.1 [reference compound] | not affected by this mutation | 
DVHRPCQSVRPGRVWGKCCLTRLCSTMCCARADCTCVYHTWRGHGCSCVM (ends and bridges not checked; cysteine pairing not given here) [αD-conotoxin GeXXA] |  | 2
